Laboratory results as given in patent US7384920B2, “Use of stilbene compounds in the manufacture of medicament for the prevention and treatment of diabetes or retrovirus-associated diseases” (priority 2001, dated 2008).
“And” between values parts separate entries of the source, which are not always exact repeats. Identical values can stand only once.

Experiments:
HBeAg expression = experiment: Inhibition of HBeAg expression in 2.2.15 cells (ELISA of supernatant); assay type: cell-based; conditions: 2.2.15 cells 10^5/ml
Experimental: Experimental method: use 10% DMEM(with G418 380 μg/ml)to cultivate 2.2.15 cells,
Add 1.5ml of 10^5 cell/ml to 24 well plate for cultivation, change the new cultivate fluid next day and add different amount of compound to it, cultivate each concentration of compound to 3 wells, then collect and freeze 200 μl of supernatant of 2.2.15 cell culture at day 2,4,6 cultivation. Measure HBeAg value of the supernatant by ELISA.
E3 are the same, OD optical density, IR inhibition rate, ctr control IR=[Ctr(P/N)−Agent(P/N)]/[Ctr(P/N)−2.1]

[1] = tested on: alloxan induced diabetic mice; experiment: Hypoglycemic effect on glucose level of alloxan induced diabetic mice; assay type: in vivo; conditions: for Postdosing glucose level / Predosing glucose level: alloxan diabetic KM male mice; for Predosing glucose level: before dosing
Experimental: The metformin or miglucan were used as positive control drugs. And the hypoglycemic effects were evaluated. Hypoglycemic effect of stilbene derivatives on glucose level of alloxan induced diabetic mice.
KM strain male mice which have been fasted for 5-8 hours are used and be injected intravenously of alloxan 80mg/Kg, and 72 hours later, selected those with glucose level>11.0 mmol/L as the diabetic model mice for drug evaluation. Compounds were administered pos for 12 days.

mice = experiment: in vivo; assay type: in vivo
normal rats = experiment: Effect on glucose tolerance curve of normal rats; assay type: in vivo; design: Auc (area under glucose tolerance curve): unit not given beside the values; conditions: for Glucose (fasted): fasted 8 hours; for Glucose after medication 0′: 0 h after ip glucose 2 g/Kg; for Glucose after medication 30′: 30 min after ip glucose 2 g/Kg; for Glucose after medication 60′: 60 min after ip glucose 2 g/Kg; for Glucose after medication 120′: 120 min after ip glucose 2 g/Kg; for Auc (area under glucose tolerance curve): ip glucose 2 g/Kg, 0-2 hours
Experimental: In these experiments, stilbene derivatives in examples 1-5 are administrated respectively to KM male mice or Wistar male rats pos for 12 days , then test animals were fasted for 8 hours, examined glucose values, and administrated the test compound. One hour later, administered ip of glucose 2 g/Kg (1.11 mol/L glucose solution). Determining the glucose values at 0, ½, 1, 2 hours after glucose injection and calculating the area under this glucose tolerance curve.

[2] = Solubility in organic solvents (identification); assay type: physicochemical; conditions: organic solvents as named in the value
in vivo = assay type: in vivo; conditions: mouse, in vivo, pos
[3] = normal rats N=6, 75 mg/Kg pos 12 days
[4] = normal rats N=6, 150 mg/Kg pos 12 days

3,3′,4′,5-quadrahydroxystilbene-4′-O-β-D-glucopyranoside [Compound E1]
IR (%) inhibition rate of HBeAg (HBeAg expression; 10 μg/ml, Day 2): 57.75%
OD (HBeAg ELISA) (HBeAg expression; 10 μg/ml, Day 2): 0.244
IR (%) inhibition rate of HBeAg (HBeAg expression; 10 μg/ml, Day 4): 32.68%
OD (HBeAg ELISA) (HBeAg expression; 10 μg/ml, Day 4): 0.208
IR (%) inhibition rate of HBeAg (HBeAg expression; 10 μg/ml, Day 6): 51.57%
OD (HBeAg ELISA) (HBeAg expression; 10 μg/ml, Day 6): 0.228
IR (%) inhibition rate of HBeAg (HBeAg expression; 20 μg/ml, Day 2): 63.83%
OD (HBeAg ELISA) (HBeAg expression; 20 μg/ml, Day 2): 0.224
IR (%) inhibition rate of HBeAg (HBeAg expression; 20 μg/ml, Day 4): −62.75%
OD (HBeAg ELISA) (HBeAg expression; 20 μg/ml, Day 4): 0.354
IR (%) inhibition rate of HBeAg (HBeAg expression; 20 μg/ml, Day 6): 48.82%
OD (HBeAg ELISA) (HBeAg expression; 20 μg/ml, Day 6): 0.235
Postdosing glucose level ([1]; 250 mg/kg pos for 12 days): 21.10 ± 5.73 mmol/L
Postdosing glucose level ([1]; 500 mg/kg pos for 12 days): 16.39 ± 5.32 mmol/L
Postdosing glucose level ([1]; 1000 mg/kg pos for 12 days): 16.54 ± 5.48 mmol/L
Predosing glucose level ([1]; group 250 mg/kg): 22.49 ± 4.63 mmol/L
Predosing glucose level ([1]; group 500 mg/kg): 22.76 ± 3.17 mmol/L
Predosing glucose level ([1]; group 1000 mg/kg): 22.65 ± 3.55 mmol/L

COc1cc(C=Cc2cc(O)cc(O[C@@H]3O[C@H](CO)[C@@H](O)[C@H](O)[C@H]3O)c2)ccc1O [Compound E2, 3,4′,5-trihydroxy-3′-methyloxy stilbene-3-O-β-D glucoside]
IR (%) inhibition rate of HBeAg (HBeAg expression; 10 μg/ml, Day 2): 71.43%
OD (HBeAg ELISA) (HBeAg expression; 10 μg/ml, Day 2): 0.199
IR (%) inhibition rate of HBeAg (HBeAg expression; 10 μg/ml, Day 4): 45.75%
OD (HBeAg ELISA) (HBeAg expression; 10 μg/ml, Day 4): 0.188
IR (%) inhibition rate of HBeAg (HBeAg expression; 10 μg/ml, Day 6): 56.69%
OD (HBeAg ELISA) (HBeAg expression; 10 μg/ml, Day 6): 0.251
IR (%) inhibition rate of HBeAg (HBeAg expression; 20 μg/ml, Day 2): 40.43%
OD (HBeAg ELISA) (HBeAg expression; 20 μg/ml, Day 2): 0.301
IR (%) inhibition rate of HBeAg (HBeAg expression; 20 μg/ml, Day 4): 9.15%
OD (HBeAg ELISA) (HBeAg expression; 20 μg/ml, Day 4): 0.244
IR (%) inhibition rate of HBeAg (HBeAg expression; 20 μg/ml, Day 6): 4.72%
OD (HBeAg ELISA) (HBeAg expression; 20 μg/ml, Day 6): 0.347
MTD (mice; mice ♀, pos): >16872 mg/kg
MTD (mice; mice ♂, pos): >18301 mg/kg
Toxicity (in words) (mice; mice, pos, summary of Table 3): very low
Postdosing glucose level ([1]; 250 mg/kg pos for 12 days): 22.61 ± 6.07 mmol/L
Postdosing glucose level ([1]; 500 mg/kg pos for 12 days): 28.96 ± 8.21 mmol/L
Postdosing glucose level ([1]; 1000 mg/kg pos for 12 days): 24.64 ± 2.49 mmol/L
Predosing glucose level ([1]; group 250 mg/kg): 21.43 ± 5.04 mmol/L
Predosing glucose level ([1]; group 500 mg/kg): 22.98 ± 5.94 mmol/L
Predosing glucose level ([1]; group 1000 mg/kg): 21.38 ± 5.75 mmol/L

COc1ccc(C=Cc2cc(O)cc(O[C@@H]3O[C@H](CO)[C@@H](O)[C@H](O)[C@H]3O)c2)cc1 [Compound E3, 3,5-dihydroxy-4′-methyloxy stilbene-3-O-β-O-D glucoside]
IR (%) inhibition rate of HBeAg (HBeAg expression; 10 μg/ml, Day 2): 72.95%
OD (HBeAg ELISA) (HBeAg expression; 10 μg/ml, Day 2): 0.194
IR (%) inhibition rate of HBeAg (HBeAg expression; 10 μg/ml, Day 4): 39.87%
OD (HBeAg ELISA) (HBeAg expression; 10 μg/ml, Day 4): 0.197
IR (%) inhibition rate of HBeAg (HBeAg expression; 10 μg/ml, Day 6): 71.65%
OD (HBeAg ELISA) (HBeAg expression; 10 μg/ml, Day 6): 0.177
IR (%) inhibition rate of HBeAg (HBeAg expression; 20 μg/ml, Day 2): 51.37%
OD (HBeAg ELISA) (HBeAg expression; 20 μg/ml, Day 2): 0.265
IR (%) inhibition rate of HBeAg (HBeAg expression; 20 μg/ml, Day 4): 1.31%
OD (HBeAg ELISA) (HBeAg expression; 20 μg/ml, Day 4): 0.256
IR (%) inhibition rate of HBeAg (HBeAg expression; 20 μg/ml, Day 6): 48.43%
OD (HBeAg ELISA) (HBeAg expression; 20 μg/ml, Day 6): 0.236
MTD (mice; mice ♀, pos): >11200 mg/kg
MTD (mice; mice ♂, pos): >11000 mg/kg
Toxicity (in words) (mice; mice, pos, summary of Table 3): very low

OC[C@H]1OC(Oc2cc(O)cc(C=Cc3ccc(O)cc3)c2)[C@H](O)[C@@H](O)[C@@H]1O (some centres unmarked) [Compound E5]
Glucose (fasted) (normal rats; [3]): 4.6 ± 0.5 mmol/L
Glucose after medication 0′ (normal rats; normal rats N=6, 75 mg/Kg): 4.9 ± 0.7 mmol/L
Glucose after medication 30′ (normal rats; normal rats N=6, 75 mg/Kg): 12.0 ± 1.5 mmol/L
Glucose after medication 60′ (normal rats; normal rats N=6, 75 mg/Kg): 7.4 ± 0.8 mmol/L
Glucose after medication 120′ (normal rats; normal rats N=6, 75 mg/Kg): 6.7 ± 0.7 mmol/L
Auc (area under glucose tolerance curve) (normal rats; normal rats N=6, 75 mg/Kg): 966.8 ± 71.6
Glucose (fasted) (normal rats; [4]): 4.7 ± 0.8 mmol/L
Glucose after medication 0′ (normal rats; normal rats N=6, 150 mg/Kg): 4.3 ± 0.9 mmol/L
Glucose after medication 30′ (normal rats; normal rats N=6, 150 mg/Kg): 10.2 ± 1.5 mmol/L
Glucose after medication 60′ (normal rats; normal rats N=6, 150 mg/Kg): 6.3 ± 1.1 mmol/L
Glucose after medication 120′ (normal rats; normal rats N=6, 150 mg/Kg): 5.7 ± 1.1 mmol/L
Auc (area under glucose tolerance curve) (normal rats; normal rats N=6, 150 mg/Kg): 836.3 ± 112.1
Solubility (in words) [2]: easily soluble in acetone
MTD (mice; mouse, in vivo): >10000 mg/kg
Toxicity (in words) (mice; mouse, in vivo): very low
Postdosing glucose level ([1]; 75 mg/kg pos for 12 days): 21.79 ± 9.39 mmol/L
Postdosing glucose level ([1]; 150 mg/kg pos for 12 days): 21.05 ± 4.63 mmol/L
Predosing glucose level ([1]; group 75 mg/kg): 17.46 ± 5.86 mmol/L
Predosing glucose level ([1]; group 150 mg/kg): 17.92 ± 5.35 mmol/L

Oc1ccc(/C=C/c2cc(O)cc(O)c2)cc1 [Compound E]
Glucose (fasted) (normal rats; [3]): 5.3 ± 0.9 mmol/L
Glucose after medication 0′ (normal rats; normal rats N=6, 75 mg/Kg): 4.9 ± 0.7 mmol/L
Glucose after medication 30′ (normal rats; normal rats N=6, 75 mg/Kg): 12.1 ± 2.3 mmol/L
Glucose after medication 60′ (normal rats; normal rats N=6, 75 mg/Kg): 7.5 ± 0.8 mmol/L
Glucose after medication 120′ (normal rats; normal rats N=6, 75 mg/Kg): 6.2 ± 0.9 mmol/L
Auc (area under glucose tolerance curve) (normal rats; normal rats N=6, 75 mg/Kg): 961.1 ± 115.9
Glucose (fasted) (normal rats; [4]): 5.8 ± 0.6 mmol/L
Glucose after medication 0′ (normal rats; normal rats N=6, 150 mg/Kg): 4.2 ± 0.4 mmol/L
Glucose after medication 30′ (normal rats; normal rats N=6, 150 mg/Kg): 9.5 ± 2.1 mmol/L
Glucose after medication 60′ (normal rats; normal rats N=6, 150 mg/Kg): 6.1 ± 1.2 mmol/L
Glucose after medication 120′ (normal rats; normal rats N=6, 150 mg/Kg): 4.7 ± 0.7 mmol/L
Auc (area under glucose tolerance curve) (normal rats; normal rats N=6, 150 mg/Kg): 760.2 ± 119.6
Solubility (in words) [2]: easily soluble in methyl alcohol, ethyl alcohol and acetone
MTD (in vivo; female, mice ♀): > 6100 mg/kg
MTD (in vivo; male, mice ♂): > 6000 mg/kg
Toxicity (in words) (mice; mouse, in vivo): very low
Postdosing glucose level ([1]; 75 mg/kg pos for 12 days): 20.01 ± 7.1 mmol/L
Postdosing glucose level ([1]; 150 mg/kg pos for 12 days): 18.36 ± 6.25 mmol/L
Predosing glucose level ([1]; group 75 mg/kg): 17.27 ± 4.60 mmol/L
Predosing glucose level ([1]; group 150 mg/kg): 17.87 ± 4.86 mmol/L

CN(C)C(=N)N=C(N)N [Metformin, reference compound]
Postdosing glucose level ([1]; 500 mg/kg pos for 12 days, 500 mg/kg): 17.49 ± 5.33 mmol/L and 17.64 ± 1.00 mmol/L and 15.16 ± 8.53 mmol/L
Predosing glucose level ([1]; group 500 mg/kg): 22.81 ± 4.89 mmol/L and 21.15 ± 3.85 mmol/L and 17.10 ± 4.84 mmol/L
Hypoglycemic effect (in words) ([1]; alloxan induced diabetic mice, summary of Table 1): effective

COc1ccc(Cl)cc1C(=O)NCCc1ccc(S(=O)(=O)NC(=O)NC2CCCCC2)cc1 [Miglucan, reference compound]
Glucose after medication 0′ (normal rats; normal rats N=6, 100 mg/Kg): 2.7 ± 0.8 mmol/L and 3.4 ± 0.4 mmol/L
Glucose after medication 30′ (normal rats; normal rats N=6, 100 mg/Kg): 11.5 ± 0.6 mmol/L and 8.7 ± 3.5 mmol/L
Glucose after medication 60′ (normal rats; normal rats N=6, 100 mg/Kg): 7.8 ± 6.2 mmol/L and 5.3 ± 2.1 mmol/L
Glucose after medication 120′ (normal rats; normal rats N=6, 100 mg/Kg): 4.1 ± 1.7 mmol/L and 3.8 ± 1.4 mmol/L
Auc (area under glucose tolerance curve) (normal rats; normal rats N=6, 100 mg/Kg): 883.1 ± 43.5 and 663.8 ± 220.2
